Molecular target: T1, UGT2B7 (UDP-glycosyltransferase) (Homo sapiens, UniProt P16662)
T1 construct: human liver microsomes encapsulated in hydrogel (HLM-Gel)
T1 sequence (P16662 24-529): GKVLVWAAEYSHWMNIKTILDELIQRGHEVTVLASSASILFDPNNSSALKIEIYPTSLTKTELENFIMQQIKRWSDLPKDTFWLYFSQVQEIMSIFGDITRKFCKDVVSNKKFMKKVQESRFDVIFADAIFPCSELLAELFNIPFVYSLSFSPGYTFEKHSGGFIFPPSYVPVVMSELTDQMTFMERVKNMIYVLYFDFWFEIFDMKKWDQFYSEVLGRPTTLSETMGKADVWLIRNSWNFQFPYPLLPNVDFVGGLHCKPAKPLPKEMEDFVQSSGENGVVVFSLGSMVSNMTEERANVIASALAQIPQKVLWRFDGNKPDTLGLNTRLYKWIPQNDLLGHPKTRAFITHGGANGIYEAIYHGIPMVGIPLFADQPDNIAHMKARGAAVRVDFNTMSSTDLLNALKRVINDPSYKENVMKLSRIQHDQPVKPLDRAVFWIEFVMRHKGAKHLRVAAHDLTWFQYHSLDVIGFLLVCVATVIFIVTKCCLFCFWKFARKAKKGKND
Experiment: inhibition of AZT glucuronidation in human liver microsomes in the Bio-PK dynamic system, HPLC, Ki fitted by MATLAB model
Type: biochemical

Molecule `OC(Cn1cncn1)(Cn1cncn1)c1ccc(F)cc1F` [FCZ, fluconazole] has a Ki of 14 µM.

Reference: paper PMC8538957 (Pharmaceutics, 2021)
